Key:
Details in all cases: Compound concentration 1000.0 nM
[1] = target: T1, Tyrosine-protein kinase ZAP-70 (Homo sapiens) (UniProt P43403)
T1 sequence (whole entry): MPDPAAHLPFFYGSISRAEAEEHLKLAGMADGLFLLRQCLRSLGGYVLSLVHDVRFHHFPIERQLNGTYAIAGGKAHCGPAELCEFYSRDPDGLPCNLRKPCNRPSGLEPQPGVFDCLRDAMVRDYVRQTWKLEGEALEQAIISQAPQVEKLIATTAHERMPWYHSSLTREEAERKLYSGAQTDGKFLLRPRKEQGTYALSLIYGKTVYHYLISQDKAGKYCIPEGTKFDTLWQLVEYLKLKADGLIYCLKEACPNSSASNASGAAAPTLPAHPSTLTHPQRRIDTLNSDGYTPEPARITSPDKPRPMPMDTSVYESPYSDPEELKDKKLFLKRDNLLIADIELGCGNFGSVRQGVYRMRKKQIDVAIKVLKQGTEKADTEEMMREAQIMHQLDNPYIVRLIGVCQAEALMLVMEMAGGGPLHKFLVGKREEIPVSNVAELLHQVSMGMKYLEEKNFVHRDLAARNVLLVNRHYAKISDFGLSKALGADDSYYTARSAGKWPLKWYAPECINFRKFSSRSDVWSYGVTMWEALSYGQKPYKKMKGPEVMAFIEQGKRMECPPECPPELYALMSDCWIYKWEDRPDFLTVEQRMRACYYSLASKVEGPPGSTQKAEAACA

[2] = target: MAP kinase-interacting serine/threonine-protein kinase 1 (Homo sapiens) (UniProt Q9BUB5)
[3] = target: Serine/threonine-protein kinase 38 (Homo sapiens) (UniProt Q15208)
Serine/threonine-protein kinase 38 (Homo sapiens), sequence (Q15208 2-465 limits assumed): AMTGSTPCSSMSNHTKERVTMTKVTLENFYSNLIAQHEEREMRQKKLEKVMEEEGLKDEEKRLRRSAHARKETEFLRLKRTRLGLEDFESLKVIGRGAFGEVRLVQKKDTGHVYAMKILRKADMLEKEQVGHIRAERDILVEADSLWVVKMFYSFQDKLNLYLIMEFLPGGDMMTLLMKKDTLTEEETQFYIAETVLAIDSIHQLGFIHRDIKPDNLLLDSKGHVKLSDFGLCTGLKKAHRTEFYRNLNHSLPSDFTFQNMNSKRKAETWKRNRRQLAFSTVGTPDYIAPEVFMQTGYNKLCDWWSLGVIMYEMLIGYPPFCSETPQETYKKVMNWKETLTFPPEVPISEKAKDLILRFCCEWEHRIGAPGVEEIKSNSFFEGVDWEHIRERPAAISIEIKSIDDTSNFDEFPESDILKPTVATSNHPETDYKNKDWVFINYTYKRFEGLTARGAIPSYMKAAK

[4] = target: Serine/threonine-protein kinase LATS2 (Homo sapiens) (UniProt Q9NRM7)
Serine/threonine-protein kinase LATS2 (Homo sapiens), sequence (Q9NRM7 whole entry): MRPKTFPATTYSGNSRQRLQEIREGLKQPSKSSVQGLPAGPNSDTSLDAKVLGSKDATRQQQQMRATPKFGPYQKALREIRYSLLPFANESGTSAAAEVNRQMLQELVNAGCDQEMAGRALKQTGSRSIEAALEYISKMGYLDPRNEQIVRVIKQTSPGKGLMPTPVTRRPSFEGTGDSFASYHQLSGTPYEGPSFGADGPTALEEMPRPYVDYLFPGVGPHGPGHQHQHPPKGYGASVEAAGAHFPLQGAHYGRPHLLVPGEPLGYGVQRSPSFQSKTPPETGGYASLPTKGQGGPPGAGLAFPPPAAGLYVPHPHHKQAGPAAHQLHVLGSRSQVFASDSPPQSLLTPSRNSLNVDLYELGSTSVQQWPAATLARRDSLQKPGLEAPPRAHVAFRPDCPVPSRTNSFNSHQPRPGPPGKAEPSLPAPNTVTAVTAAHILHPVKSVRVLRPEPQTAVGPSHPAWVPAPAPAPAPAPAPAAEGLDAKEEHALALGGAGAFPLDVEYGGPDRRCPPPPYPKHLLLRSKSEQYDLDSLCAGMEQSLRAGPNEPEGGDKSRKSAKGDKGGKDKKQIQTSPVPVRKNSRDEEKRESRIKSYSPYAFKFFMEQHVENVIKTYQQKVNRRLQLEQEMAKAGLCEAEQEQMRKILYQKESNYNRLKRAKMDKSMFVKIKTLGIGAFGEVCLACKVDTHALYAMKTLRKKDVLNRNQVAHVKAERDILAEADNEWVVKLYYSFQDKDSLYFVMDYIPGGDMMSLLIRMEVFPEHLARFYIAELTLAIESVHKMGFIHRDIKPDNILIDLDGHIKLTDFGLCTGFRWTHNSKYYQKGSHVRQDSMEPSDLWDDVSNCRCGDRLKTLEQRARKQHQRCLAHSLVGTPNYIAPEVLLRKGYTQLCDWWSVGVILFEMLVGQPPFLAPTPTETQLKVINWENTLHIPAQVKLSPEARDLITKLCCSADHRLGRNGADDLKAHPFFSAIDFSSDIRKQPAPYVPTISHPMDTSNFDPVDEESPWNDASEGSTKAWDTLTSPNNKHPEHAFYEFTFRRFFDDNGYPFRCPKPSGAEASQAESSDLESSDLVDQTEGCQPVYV

[5] = target: Cyclin-G-associated kinase (Homo sapiens) (UniProt O14976)
[6] = target: Non-receptor tyrosine-protein kinase TYK2 (Homo sapiens) (UniProt P29597)
[7] = target: Serine/threonine-protein kinase MRCK gamma (Homo sapiens) (UniProt Q6DT37)
[8] = target: Calcium/calmodulin-dependent protein kinase type 1D (Homo sapiens) (UniProt Q8IU85)
Calcium/calmodulin-dependent protein kinase type 1D (Homo sapiens), sequence (Q8IU85 whole entry, looked up): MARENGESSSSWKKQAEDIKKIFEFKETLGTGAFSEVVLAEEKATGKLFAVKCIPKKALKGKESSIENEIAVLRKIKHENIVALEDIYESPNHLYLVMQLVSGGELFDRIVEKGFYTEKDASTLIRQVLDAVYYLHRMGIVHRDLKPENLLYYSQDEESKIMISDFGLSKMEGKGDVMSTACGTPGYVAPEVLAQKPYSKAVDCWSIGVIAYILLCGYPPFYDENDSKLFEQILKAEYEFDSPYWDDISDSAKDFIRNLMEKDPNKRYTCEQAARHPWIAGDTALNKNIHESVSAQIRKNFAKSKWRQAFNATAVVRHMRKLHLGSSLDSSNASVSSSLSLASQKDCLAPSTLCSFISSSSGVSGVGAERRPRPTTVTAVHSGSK

[9] = target: Receptor tyrosine-protein kinase erbB-3 (Homo sapiens) (UniProt P21860)
Receptor tyrosine-protein kinase erbB-3 (Homo sapiens), sequence (P21860 whole entry): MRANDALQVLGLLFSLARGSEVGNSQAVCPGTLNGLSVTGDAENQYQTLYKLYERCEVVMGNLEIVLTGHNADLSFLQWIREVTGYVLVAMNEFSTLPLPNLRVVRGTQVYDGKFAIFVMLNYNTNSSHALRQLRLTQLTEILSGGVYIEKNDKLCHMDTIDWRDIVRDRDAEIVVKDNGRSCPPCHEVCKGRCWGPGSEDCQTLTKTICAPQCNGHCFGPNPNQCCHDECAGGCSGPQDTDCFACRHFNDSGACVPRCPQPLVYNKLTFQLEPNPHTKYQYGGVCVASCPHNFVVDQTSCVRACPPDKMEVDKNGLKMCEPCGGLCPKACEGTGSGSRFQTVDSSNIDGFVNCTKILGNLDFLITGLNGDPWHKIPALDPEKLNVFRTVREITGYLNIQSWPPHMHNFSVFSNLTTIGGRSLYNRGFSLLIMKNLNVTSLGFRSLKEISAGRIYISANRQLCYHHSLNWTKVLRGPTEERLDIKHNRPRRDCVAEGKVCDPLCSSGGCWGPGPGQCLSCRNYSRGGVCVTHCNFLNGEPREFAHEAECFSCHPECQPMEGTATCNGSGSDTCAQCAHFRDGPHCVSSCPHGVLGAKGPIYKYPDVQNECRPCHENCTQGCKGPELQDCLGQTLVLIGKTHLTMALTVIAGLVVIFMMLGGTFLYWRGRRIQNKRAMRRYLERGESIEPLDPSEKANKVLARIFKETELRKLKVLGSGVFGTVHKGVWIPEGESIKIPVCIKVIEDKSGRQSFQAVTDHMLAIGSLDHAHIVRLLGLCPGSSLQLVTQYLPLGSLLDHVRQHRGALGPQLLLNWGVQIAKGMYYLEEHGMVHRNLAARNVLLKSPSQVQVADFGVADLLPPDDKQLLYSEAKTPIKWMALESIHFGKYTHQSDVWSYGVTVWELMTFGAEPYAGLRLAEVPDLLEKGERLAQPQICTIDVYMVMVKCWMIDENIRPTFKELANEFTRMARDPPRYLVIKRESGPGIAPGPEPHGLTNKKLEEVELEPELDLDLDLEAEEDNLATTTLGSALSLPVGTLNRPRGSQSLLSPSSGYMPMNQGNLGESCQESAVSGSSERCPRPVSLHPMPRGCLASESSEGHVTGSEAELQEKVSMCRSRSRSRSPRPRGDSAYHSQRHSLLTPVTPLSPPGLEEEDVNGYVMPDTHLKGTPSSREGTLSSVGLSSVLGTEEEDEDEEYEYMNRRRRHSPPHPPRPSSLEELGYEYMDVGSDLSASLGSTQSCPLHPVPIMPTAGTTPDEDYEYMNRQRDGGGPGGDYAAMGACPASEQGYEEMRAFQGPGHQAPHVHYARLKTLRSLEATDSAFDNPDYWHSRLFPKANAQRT

[10] = target: G protein-coupled receptor kinase 4 (Homo sapiens) (UniProt P32298)
[11] = target: RAC-alpha serine/threonine-protein kinase (Homo sapiens) (UniProt P31749)
[12] = target: Transient receptor potential cation channel subfamily M member 6 (Homo sapiens) (UniProt Q9BX84)
[13] = target: Tyrosine-protein kinase HCK (Homo sapiens) (UniProt P08631)
Tyrosine-protein kinase HCK (Homo sapiens), sequence (P08631 2-526 limits assumed): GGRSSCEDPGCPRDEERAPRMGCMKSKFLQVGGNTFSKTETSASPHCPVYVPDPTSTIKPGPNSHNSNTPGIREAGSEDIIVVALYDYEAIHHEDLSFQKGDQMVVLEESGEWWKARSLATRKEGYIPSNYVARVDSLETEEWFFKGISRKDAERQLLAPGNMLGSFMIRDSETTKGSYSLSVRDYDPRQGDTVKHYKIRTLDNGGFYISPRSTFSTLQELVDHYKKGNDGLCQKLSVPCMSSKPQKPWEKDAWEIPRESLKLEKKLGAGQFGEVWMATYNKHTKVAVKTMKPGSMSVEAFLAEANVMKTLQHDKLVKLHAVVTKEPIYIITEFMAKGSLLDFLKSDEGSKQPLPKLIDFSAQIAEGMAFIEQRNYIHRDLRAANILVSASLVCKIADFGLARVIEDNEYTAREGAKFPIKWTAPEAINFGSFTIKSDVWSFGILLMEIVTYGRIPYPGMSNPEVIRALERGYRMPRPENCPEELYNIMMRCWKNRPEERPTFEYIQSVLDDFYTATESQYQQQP

[14] = target: Tyrosine-protein kinase Blk (Homo sapiens) (UniProt P51451)
Tyrosine-protein kinase Blk (Homo sapiens), sequence (P51451 2-505 limits assumed): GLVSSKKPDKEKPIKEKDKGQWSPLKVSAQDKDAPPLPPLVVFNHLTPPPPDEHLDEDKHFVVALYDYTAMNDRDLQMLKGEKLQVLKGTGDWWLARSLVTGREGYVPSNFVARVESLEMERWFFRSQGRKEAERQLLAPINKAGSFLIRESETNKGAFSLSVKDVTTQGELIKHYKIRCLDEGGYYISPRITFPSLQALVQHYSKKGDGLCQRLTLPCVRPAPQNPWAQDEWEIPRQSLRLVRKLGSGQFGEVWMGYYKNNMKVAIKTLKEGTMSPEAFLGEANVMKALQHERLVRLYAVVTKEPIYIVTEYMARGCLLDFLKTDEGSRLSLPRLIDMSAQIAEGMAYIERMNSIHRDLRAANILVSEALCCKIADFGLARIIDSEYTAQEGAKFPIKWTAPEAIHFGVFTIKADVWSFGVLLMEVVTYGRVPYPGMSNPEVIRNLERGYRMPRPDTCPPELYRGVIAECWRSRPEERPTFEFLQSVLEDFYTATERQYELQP

[15] = target: Mitogen-activated protein kinase 3 (Homo sapiens) (UniProt P27361)
Mitogen-activated protein kinase 3 (Homo sapiens), sequence (P27361 whole entry): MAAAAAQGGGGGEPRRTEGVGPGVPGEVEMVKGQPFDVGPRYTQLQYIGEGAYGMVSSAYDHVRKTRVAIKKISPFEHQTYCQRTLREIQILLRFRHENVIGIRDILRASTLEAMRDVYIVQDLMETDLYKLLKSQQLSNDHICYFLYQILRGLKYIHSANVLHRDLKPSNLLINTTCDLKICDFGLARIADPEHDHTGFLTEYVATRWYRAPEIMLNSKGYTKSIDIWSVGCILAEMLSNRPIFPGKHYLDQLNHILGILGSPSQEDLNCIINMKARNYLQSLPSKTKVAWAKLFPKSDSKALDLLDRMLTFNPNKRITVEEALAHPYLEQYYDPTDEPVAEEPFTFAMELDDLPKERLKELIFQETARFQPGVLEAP

[16] = target: Serine/threonine-protein kinase MRCK alpha (Homo sapiens) (UniProt Q5VT25)
[17] = target: T2, Mitogen-activated protein kinase kinase kinase 5 (Homo sapiens) (UniProt Q99683)
T2 sequence (whole entry): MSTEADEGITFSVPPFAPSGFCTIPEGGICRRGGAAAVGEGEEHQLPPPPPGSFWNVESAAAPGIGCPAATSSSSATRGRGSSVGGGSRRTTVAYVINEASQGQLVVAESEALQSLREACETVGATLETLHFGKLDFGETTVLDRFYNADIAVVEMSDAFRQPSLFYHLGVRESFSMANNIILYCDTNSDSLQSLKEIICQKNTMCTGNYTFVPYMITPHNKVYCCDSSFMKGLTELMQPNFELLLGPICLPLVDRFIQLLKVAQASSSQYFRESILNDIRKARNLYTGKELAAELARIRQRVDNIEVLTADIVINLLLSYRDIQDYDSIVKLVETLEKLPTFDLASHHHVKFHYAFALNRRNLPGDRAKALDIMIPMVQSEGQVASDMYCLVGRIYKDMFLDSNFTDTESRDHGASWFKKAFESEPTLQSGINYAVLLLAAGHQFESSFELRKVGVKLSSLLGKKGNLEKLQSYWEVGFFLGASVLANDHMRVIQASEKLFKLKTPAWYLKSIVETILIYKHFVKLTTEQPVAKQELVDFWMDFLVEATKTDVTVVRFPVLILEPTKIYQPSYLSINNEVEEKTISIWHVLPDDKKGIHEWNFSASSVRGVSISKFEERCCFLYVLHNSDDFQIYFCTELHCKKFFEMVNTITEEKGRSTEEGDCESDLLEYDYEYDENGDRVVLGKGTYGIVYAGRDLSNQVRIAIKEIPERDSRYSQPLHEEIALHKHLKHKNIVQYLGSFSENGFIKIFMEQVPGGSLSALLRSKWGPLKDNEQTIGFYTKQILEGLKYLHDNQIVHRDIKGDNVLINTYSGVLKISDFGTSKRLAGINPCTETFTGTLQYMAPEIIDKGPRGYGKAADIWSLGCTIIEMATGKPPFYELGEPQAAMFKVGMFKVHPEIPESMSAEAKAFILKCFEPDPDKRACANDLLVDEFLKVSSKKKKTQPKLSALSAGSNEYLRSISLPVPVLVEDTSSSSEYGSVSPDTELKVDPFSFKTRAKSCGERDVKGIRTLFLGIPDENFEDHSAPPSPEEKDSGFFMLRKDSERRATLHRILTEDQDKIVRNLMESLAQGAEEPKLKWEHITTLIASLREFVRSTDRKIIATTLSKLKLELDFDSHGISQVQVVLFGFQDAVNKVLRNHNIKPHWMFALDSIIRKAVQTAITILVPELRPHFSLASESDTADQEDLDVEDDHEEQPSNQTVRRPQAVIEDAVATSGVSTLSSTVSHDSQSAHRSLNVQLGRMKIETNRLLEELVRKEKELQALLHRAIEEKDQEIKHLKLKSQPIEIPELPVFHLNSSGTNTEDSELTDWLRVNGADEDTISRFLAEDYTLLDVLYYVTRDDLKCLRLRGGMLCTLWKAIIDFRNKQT

Measured: residual activity

CN1CCN(c2cnc3c(C4CCN(C(=O)c5ccc(OC(F)(F)F)cc5N)CC4)ncnc3c2)CC1 [BAY-885]
inactive: [1] 100% | [2] 100% | [3] 80% | [4] 100% | [5] 100% | [6] 93% | [7] 100% | [8] 100% | [9] 84% | [10] 100% | [11] 100% | [12] 100% | [13] 95% | [14] 91% | [15] 100% | [16] 100% | [17] 92%

Cc1nc(C2CCN(C(=O)c3ccc(OC(F)(F)F)cc3N)CC2)c2ncc(N3CCN(C)CC3)cc2n1 [BAY-693]
inactive: [1] 100% | [2] 100% | [3] 94% | [4] 100% | [5] 100% | [6] 100% | [7] 100% | [8] 100% | [9] 88% | [10] 96% | [11] 100% | [12] 100% | [13] 95% | [14] 97% | [15] 98% | [16] 99% | [17] 99%
